From patent US10221163B2 (priority 2015, dated 2019)
Where two headings read alike, the source gives them in different places.

Experiments:
[1] = tested on: Pseudomonas aeruginosa efflux− (MB9799), IMP-1; format: cell-based; settings: concentration restoring susceptibility to imipenem at 2 μg/mL in the presence of a class A, C, D serine β-lactamase inhibitor closely related to relebactam
Procedure, shortened: (§1)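 Microbroth MIC tests in PAO1-background strains with fixed imipenem and/or ceftazidime, usually at the CLSI breakpoint, plus fixed class A/C β-lactamase inhibitor against AmpC. MBL inhibitor titrated; concentration restoring susceptibility recorded and compared as fold difference between efflux+ MB9798 and efflux− MB9799.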

NDM-1 = NDM-1 (Klebsiella pneumoniae, UniProt C7C422); test: biochemical; format: biochemical; settings: fluorescence assay, CCF2-FA substrate, 1 pM enzyme, 2 hours at 25° C.; read-out: NDM-1 IC50
NDM-1, sequence (C7C422 whole entry, looked up, species assumed): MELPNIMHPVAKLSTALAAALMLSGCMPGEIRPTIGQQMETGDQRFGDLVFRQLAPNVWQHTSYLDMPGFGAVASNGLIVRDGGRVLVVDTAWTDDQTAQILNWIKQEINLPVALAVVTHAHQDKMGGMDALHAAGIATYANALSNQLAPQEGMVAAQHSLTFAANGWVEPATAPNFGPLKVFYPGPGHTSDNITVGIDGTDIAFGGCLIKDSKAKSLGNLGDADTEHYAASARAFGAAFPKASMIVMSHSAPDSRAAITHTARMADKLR
Procedure, shortened: (§2)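 Two-hour, 25° C incubation of enzyme with inhibitor and CCF2-FA (7-hydroxycoumarin–cephalosporin–fluorescein). Fluorescence read-out; IC50 via 4-parameter fit.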

IMP-1 = IMP-1 (Serratia marcescens, UniProt P52699); test: biochemical; format: biochemical; settings: fluorescence assay, CCF2-FA substrate, 2 pM enzyme, 2 hours at 25° C.; read-out: IMP-1 IC50
IMP-1, sequence (P52699 whole entry, looked up, species assumed): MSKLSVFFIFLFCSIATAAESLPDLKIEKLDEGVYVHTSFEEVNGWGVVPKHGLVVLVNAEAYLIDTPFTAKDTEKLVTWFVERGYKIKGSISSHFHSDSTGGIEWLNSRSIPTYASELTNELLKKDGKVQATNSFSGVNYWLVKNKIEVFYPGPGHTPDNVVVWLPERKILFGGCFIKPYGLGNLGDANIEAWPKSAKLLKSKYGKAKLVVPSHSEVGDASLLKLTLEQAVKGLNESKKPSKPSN
Procedure, shortened: as §2

VIM-1 = VIM-1 (Pseudomonas aeruginosa (strain ATCC 15692 / DSM 22644 / CIP 104116 / JCM 14847 / LMG 12228 / 1C / PRS 101 / PAO1), UniProt A0A0F7KYQ8); test: biochemical; settings: CCF2-FA substrate, 30 pM enzyme, 2 hours at 25° C.
Procedure, shortened: as §2

[2] = tested on: Pseudomonas aeruginosa MB9798 vs MB9799; settings: ratio MITC95 PA_9798/MITC95 PA_9799
Procedure, shortened: as §1

[3] = tested on: Serratia marcescens expressing IMP-1 (CL5741); format: cell-based; settings: with imipenem 1 μg/ml; 95% inhibition of bacterial growth
Procedure, shortened: (§3)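 Clinical strains grown overnight on blood agar at 35°C, colonies suspended in saline, diluted 1:100 into 1.1×CAMHB. Test compound titrated with imipenem at 1 μg/ml; incubated 22–24 h at 35°C, growth read by absorbance.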

[4] = tested on: Escherichia coli expressing NDM-1 (CLB30005, CLB30016); format: cell-based; settings: with imipenem 1 μg/ml; 95% inhibition of bacterial growth
Procedure, shortened: as §3

[5] = tested on: Klebsiella pneumoniae expressing VIM-1 (IHMA599644); format: cell-based; settings: with imipenem 1 μg/ml; 95% inhibition of bacterial growth
Procedure, shortened: as §3

[6] = tested on: Pseudomonas aeruginosa efflux+ (MB9798), IMP-1; format: cell-based; settings: concentration restoring susceptibility to imipenem at 2 μg/mL in the presence of a class A, C, D serine β-lactamase inhibitor closely related to relebactam
Procedure, shortened: as §1

[7] = fluorescence assay, read-out: VIM-1 IC50

SMILES | P. aeruginosa expressing IMP-1, efflux − (MB9799) MITC95 [1] [µM] | IC50 (NDM-1) [pM] | IC50 (IMP-1) [pM] | IC50 (VIM-1; [7]) [pM] | Efflux ratio [2] | Serratia marcescens expressing IMP-1 (CL5741) MITC95 [3] [µM] | Escherichia coli expressing NDM-1 (CLB30016) MITC95 [4] [µM] | Klebsiella pneumoniae expressing VIM-1 (IHMA599644) MITC95 [5] [µM] | P. aeruginosa expressing IMP-1, efflux + (MB9798) MITC95 [6] [µM] | IC50 (VIM-1; VIM-1 IC50, fluorescence assay) [pM]
Nc1ccc(-c2ccc(S(=O)(=O)N[C@@H]3CCNC3)c(S(N)(=O)=O)c2-c2nn[nH]n2)cn1 [Example 194, (R)-4-(6-aminopyridin-3-yl)-N^1-(pyrrolidin-3-yl)-3-(2H-tetrazol-5-yl)benzene-1,2-disulfonamide] | 0.8542 | 105 | 242 | 124 | 0.80 | 0.5573 | 0.3203 | 2.229 | 0.6875 | 
Nc1ccc(-c2ccc(S(=O)(=O)N[C@H]3CCNC3)c(S(N)(=O)=O)c2-c2nn[nH]n2)cn1 [Example 195, (S)-4-(6-aminopyridin-3-yl)-N^1-(pyrrolidin-3-yl)-3-(2H-tetrazol-5-yl)benzene-1,2-disulfonamide] | 0.7813 | 169 | 523 | 182 | 1.00 | 0.5859 | 0.5859 | 1.563 | 0.7813 | 
NCCNS(=O)(=O)c1ccc(-c2ccc(N)nc2)c(-c2nn[nH]n2)c1S(N)(=O)=O [Example 196, N^1-(2-aminoethyl)-4-(6-aminopyridin-3-yl)-3-(2H-tetrazol-5-yl)benzene-1,2-disulfonamide] | 0.7656 | 328 | 480 | 218 | 1.00 | 0.2969 | 0.03125 | 1.336 | 0.7656 | 
NS(=O)(=O)c1c(S(=O)(=O)N[C@H]2CCNC2)ccc(-c2cccc3[nH]cnc23)c1-c1nn[nH]n1 [Example 197] | 0.7813 | 76.4 | 395 | 145 | 1.00 | 1.172 | 2.344 | 3.125 | 0.7813 | 
NCCCNS(=O)(=O)c1ccc(-c2cccc3[nH]cnc23)c(-c2nn[nH]n2)c1S(N)(=O)=O [Example 198, N^1-(3-aminopropyl)-4-(1H-benzo[d]imidazol-4-yl)-3-(2H-tetrazol-5-yl)benzene-1,2-disulfonamide] | 0.7813 | 59.2 | 293 | 135 | 1.00 | 1.172 | 1.172 | 2.344 | 0.7813 | 
NCCNS(=O)(=O)c1ccc(-c2cccc3[nH]cnc23)c(-c2nn[nH]n2)c1S(N)(=O)=O [Example 199, N^1-(2-aminoethyl)-4-(1H-benzo[d]imidazol-4-yl)-3-(2H-tetrazol-5-yl)benzene-1,2-disulfonamide] | 1.432 | 25.7 | 102 | 47.1 | 0.55 | 1.042 | 1.042 | 2.865 | 0.7813 | 
NS(=O)(=O)c1c(S(=O)(=O)N[C@H]2C[C@H](N)C2)ccc(-c2cccc3[nH]cnc23)c1-c1nn[nH]n1 [Example 200, N^1-((1r,3r)-3-aminocyclobutyl)-4-(1H-benzo[d]imidazol-4-yl)-3-(2H-tetrazol-5-yl)benzene-1,2-disulfonamide] | 0.7813 | 52.8 | 276 | 114 | 1.00 | 1.563 | 1.563 | 3.125 | 0.7813 | 
NC[C@@H](CO)NS(=O)(=O)c1ccc(-c2cccc3sc(N)nc23)c(-c2nnn[nH]2)c1S(N)(=O)=O [Example 201, (S)—N^1-(1-amino-3-hydroxypropan-2-yl)-4-(2-aminobenzo[d]thiazol-4-yl)-3-(1H-tetrazol-5-yl)benzene-1,2-disulfonamide] | 1.563 | 19.9 | 109 |  | 0.50 | 1.563 | 1.563 | 3.125 | 0.7813 | 125
NC[C@H](CO)NS(=O)(=O)c1ccc(-c2cccc3sc(N)nc23)c(-c2nnn[nH]2)c1S(N)(=O)=O [Example 202, (R)—N^1-(1-amino-3-hydroxypropan-2-yl)-4-(2-aminobenzo[d]thiazol-4-yl)-3-(1H-tetrazol-5-yl)benzene-1,2-disulfonamide] | 1.563 | 124 | 713 |  | 1.00 | 1.563 | 3.125 | 3.125 | 1.563 | 328
NCCOCCNS(=O)(=O)c1ccc(-c2cccc3sc(N)nc23)c(-c2nnn[nH]2)c1S(N)(=O)=O [Example 203, 4-(2-aminobenzo[d]thiazol-4-yl)-N^1-(2-(2-aminoethoxy)ethyl)-3-(1H-tetrazol-5-yl)benzene-1,2-disulfonamide] | 1.563 | 50 | 199 | 185 | 0.50 | 1.563 | 3.125 | 3.125 | 0.7813 | 
NCCNC(=O)c1cccc(-c2ccc(S(=O)(=O)NCCN)c(S(N)(=O)=O)c2-c2nn[nH]n2)c1N [Example 204, 2-amino-N-(2-aminoethyl)-4′-(N-(2-aminoethyl)sulfamoyl)-5′-sulfamoyl-6′-(2H-tetrazol-5-yl)biphenyl-3-carboxamide] | 0.7813 | 520 | 2560 | 226 | 1.00 | 1.563 | 1.563 | 1.563 | 0.7813 | 
Nc1nc2c(-c3ccc(S(=O)(=O)N4CC[C@@H](F)[C@H](N)C4)c(S(N)(=O)=O)c3-c3nn[nH]n3)cccc2[nH]1 [Example 205, 3-(2-amino-1H-benzo[d]imidazol-4-yl)-6-(((3R,4R)-3-amino-4-fluoropiperidin-1-yl)sulfonyl)-2-(2H-tetrazol-5-yl)benzenesulfonamide] | 1.563 | 1200 | 5890 | 3630 | 8.00 | 3.125 | 1.563 | 3.125 | 12.5 | 
Nc1nc2c(-c3ccc(S(=O)(=O)NCC4COCCN4)c(S(N)(=O)=O)c3-c3nn[nH]n3)cccc2[nH]1 (stereo not drawn) [Example 206, 4-(2-amino-1H-benzo[d]imidazol-4-yl)-N1-(morpholin-3-ylmethyl)-3-(2H-tetrazol-5-yl)benzene-1,2-disulfonamide] | 1.563 | 72.9 | 498 |  | 2.00 | 1.563 | 0.3906 | 1.563 | 3.125 | 211
